Assay results published in patent publication US7250157B2, “Dermatological compositions and methods” (Applied Genetics Incorporated Dermatics, priority 1996, dated 2007).
“And” between values parts separate entries of the source, which are not always exact repeats. Equal values may be shown once. Read-outs that look alike come from different tables or passages of the source.

How the values were obtained:
[1] = system: Tyrosinase in normal human epidermal melanocytes (NHEM); assay: Tyrosinase in NHEM (in situ, cellular, extracellular particulate, media); type: cell-based; details: for Tyrosinase 200 g Partic, relative to controls (in parentheses) / Tyrosinase 17300 g Partic, relative to controls (in parentheses) / Tyrosinase Cellular, relative to controls (in parentheses) / Tyrosinase In Situ, relative to controls (in parentheses) / Tyrosinase Media, relative to controls (in parentheses): pair of replicates
Procedure: Tyrosinase was measured in normal human epidermal melanocytes (NHEM) using procedures identical to those described for S91 cells (Example 6), […], 1600×g, or 17,300×g for analysis of tyrosinase activity in the extracellular exported melanosomal particulate fraction, and in the resultant supernatant media fraction. In some cases (Table 11), tyrosinase was also measured by an in situ assay wherein radiolabelled tyrosine was added directly to freshly replaced media of NHEM for a period of 24 hrs following a 5 day treatment period (Abdel-Malek, et al., 1992, J. Cell. Physiol. 150:416-425). […] Both 5 mM 5-NBene-2,2-DM and 25 mM 3,3-M-1,2-BD induced more tyrosinase in each of these assays and fractions than did 1,2-PG. IBMX (3-isobutyl-1-methyl-xanthine) provided as a positive control, induced as much tyrosinase as 5 mM 5-NBene-2,2-DM in the in situ assay, but less in cellular, extracellular particulate and media fractions (Table 11).

[2] = system: tyrosinase activity in S91 mouse melanoma cells; assay: Induction of tyrosinase activity in S91 cells; details: for Tyrosinase dpm/hr 10^3 Cells / Tyrosinase dpm/hr ug Protein: 300 mM PG-1,2, 25 mM 3,3-M-1,2-BD, 50 mM 1,2-cs-CPD, 0.5 mM 2,3-Pyd, 0.1 mM IBMX, mean ±SE
Procedure: Compounds were examined for their ability to induce tyrosinase activity in S91 mouse melanoma cells. […] Following treatments, cells were trypsinized, counted by Coulter, pelleted by centrifugation at 1000×g, and analyzed for tyrosinase activity using modifications of previously described procedures (Pomerantz, S. H., 1966, J. Biol. Chem. 241:161-168; Jara, et al., 1988, Pigment Cell Res. 1: 332-339.). Briefly, cell pellets were solubilized by sonicating for 5 seconds in 600 ul 50 mM phosphate buffer pH 6.8 containing 0.5% Triton-X100, followed by vortexing, incubation on ice for 30 min, and then revortexing. From this, 200 ul aliquots were combined with 200 ul of reaction mixture containing either 75 uM tyrosine, 75 uM L-Dopa, and 2 uCi L-[3,5-^3H]Tyrosine in 50 mM NaPO4 pH 6.8 (L-Dopa+), or, 75 uM tyrosine, and 2 uCi L-[3,5-^3H]Tyrosine in 50 mM NaPO4 pH 6.8 (L-Dopa−) and incubated 1 hr at 37° C. Reactions were stopped by addition of 400 ul 10% activated charcoal in 0.1N HCl and incubation on ice for 15 min. This mixture was centrifuged at 17,300×g for 5 min, and 400 ul supernatant was then filtered through a 0.22 uM GV Durapore centifugal filter unit (Millipore) by centrifuging at 17,300×g for 5 min. Filtrate was added to 4 ml Fisher Plus scintillation fluid and counted on a Hewlett Packard scintillation counter. Tyrosinase activity was calculated as dpm/hr/ug protein and dpm/hr/10^3 cells. Each sample was analyzed with and without L-Dopa, a necessary cofactor for tyrosinase (Pomerantz, S. H., 1966, J. Biol. Chem. 241:161-168; McLane, et al., 1987, Biochem. Biophys. Res. Commun. 145:719-725). All reported tyrosinase values are exclusive of counts that occurred in buffer blanks and L-dopa negative aliquots. Protein was determined on aliquots of cell lysate, extracellular particulate lysate or media by the Bradford Coomassie Blue method (Bradford, 1967, Anal. Biochem. 72:248-254) using Bio-Rad Protein Assay Kit I.

[3] = system: Normal human epidermal melanocytes (NHEMs); assay: Melanin induction in normal human epidermal melanocytes; type: cell-based
Procedure: Normal human epidermal melanocytes (NHEMs) were examined for induction of melanogenesis using cells and media from Clonetics Corporation (San Diego, Calif.). Cells were cultured exactly as specified by the supplier.

[4] = system: American short-haired guinea pigs; assay: Topical melanogenesis (pigmentation rating) in guinea pigs; type: in vivo, guinea pig; parameters: Pigmentation Rating / Pigmentation Rating Background Corrected: scale not given here; details: for relative melanogenesis rating (mean ±SE), scale 0-4: 25 μl twice per day for 5 days, rated two weeks after
Method in brief: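 Agents applied topically to depilated back sites of American short-haired guinea pigs; PG, 2,3-BD and 1,2-cis-CPD at full strength, 3,3-M-1,2-BD at 4M in ethanol. Pigmentation subjectively rated two weeks after cessation of treatment, corrected for control-spot background, normalized to 1M and to 1,2-PG.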

[5] = system: Cloudman S91 mouse melanoma cell line; assay: Cell count (proliferation, toxicity) of treated S91 cells; type: cell-based
Method in brief: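 S91 cells in 2% calf serum exposed to test compounds for 6 days at 37° C; differentiated vs dedifferentiated morphology scored microscopically and trypsin detachment time recorded. Cells counted for proliferation; melanin extracted in 1N NaOH, A475 against melanin standards, expressed as pg melanin/cell.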

[6] = 5 day treatment, 300 mM 1,2-PG, 25 mM 3,3-M-1,2-BD, 5 mM 5-NBene-2,2-DM, 0.1 mM IBMX
[7] = No Penetration Enhancer, concentrations as E85
[8] = 5 day treatment, concentrations as E130
[9] = Experiment 1, 5 mM 5-NBene-2,2-DM
[10] = Experiment 2, 5 mM 5-NBene-2,2-DM
[11] = Experiment 3, 5 mM 5-NBene-2,2-DM

CC(O)CO (centres unmarked) [1,2-propanediol, 1,2-Propanediol (Propylene Glycol)]
Tyrosinase In Situ [1, 6]: 17.2 dpm/hr/10^3 Cells and 16.8 dpm/hr/10^3 Cells | Tyrosinase Cellular ([1]; 5 day treatment, concentrations as E130, listed as 1,2-PG): 10875 dpm/hr/10^3 Cells and 10247 dpm/hr/10^3 Cells | Tyrosinase Media ([1]; Post 17300 X g, 5 day treatment, concentrations as E130, listed as 1,2-PG): 2123 dpm/hr/10^3 Cells and 1864 dpm/hr/10^3 Cells | Tyrosinase 200 g Partic, relative to controls (in parentheses) ([1]; concentrations as E130): (1.98X) | Tyrosinase 17300 g Partic, relative to controls (in parentheses) ([1]; concentrations as E130): (1.50X) | Tyrosinase Cellular, relative to controls (in parentheses) ([1]; concentrations as E130): (1.03) X | Tyrosinase In Situ, relative to controls (in parentheses) ([1]; concentrations as E130): (1.07X) | Tyrosinase Media, relative to controls (in parentheses) ([1]; concentrations as E130): (1.28X) | Tyrosinase dpm/hr 10^3 Cells ([2]; 5 mM 5-NBene-2,2-DM): 292 ± 104 dpm/hr/10^3 Cells | Tyrosinase dpm/hr ug Protein ([2]; 5 mM 5-NBene-2,2-DM): 1003 ± 370 dpm/hr/ug Protein | Concentration Required for ≧1.5-fold Melanin Induction in NHEMs [3]: 150 mM | Pigmentation Rating Normalized to 1,2-PG [4, 7]: 1.0 ± 0.1 | Pigmentation Rating Normalized to 1M [4, 7]: 0.015 ± 0.002 | Pigmentation Rating Background Corrected ([4]; No Penetration Enhancer, corrected for Nair control, concentrations as E85): 0.21 ± 0.03 | Pigmentation Rating ([4]; No Penetration Enhancer, sites c and d, 13.61M 1,2-PG, 11.0M 2,3-M-2,3-BD, 11.3M 2-M-1,3-PG, 8.7M 1,2-cs-CPD, 4.0M 3,3-M-1,2-BD): 0.29 ± 0.09 | melanogenesis in guinea pigs (in words) ([4]; same relative body position): significant melanogenesis relative to depilitory treated controls | relative melanogenesis rating (mean ±SE), scale 0-4 ([4]; site a (head), PG 13.6M, 2,3-BD 10.95M, 1,2-cs-CPD 10.7M full strength, 3,3-M-1,2-BD 4M in ethanol): 1.04 ± 0.21 | relative melanogenesis rating (mean ±SE), scale 0-4 ([4]; site b, full strength solutions, listed as PG): 0.50 ± 0.25 and 0.83 ± 0.17 | relative melanogenesis rating (mean ±SE), scale 0-4 ([4]; site c, full strength, 3,3-M-1,2-BD 4M in ethanol): 0.25 ± 0.09^1 | relative melanogenesis rating (mean ±SE), scale 0-4 ([4]; site d (tail), full strength solutions): 0.33 ± 0.16^1 | pigmentation response versus control (Nair or 2% 2P treated) spots ([4]; sites towards tail, 13.61M 1,2-PG, 10.6M 1,2-PG/2% 2P, 11M 2,3-dimethyl-2,3-butanediol): not significantly different from control | Cells (×10^6) ([5]; 50 mM): 0.084 ×10^6 | Cells (×10^6) ([5]; 150 mM): 0.072 ×10^6 | Cells (×10^6) ([5]; 1% (136 mM), 6 days): 0.52 ×10^6 | Cells (×10^6) ([5]; 2% (272 mM), 6 days): 0.50 ×10^6 | Cells (×10^6) ([5]; 3% (408 mM), 6 days): 0.20 ×10^6 | Cells (×10^6) ([5]; 4% (544 mM), 6 days): 0.10 ×10^6 | Cells (×10^6) ([5]; 5% (680 mM), 6 days): 0.08 ×10^6 | effect on cell proliferation ([5]; levels used in this experiment (50 and 150 mM)): no reduction of cell proliferation

OCC1(CO)CC2C=CC1C2 (centres unmarked) [5-NBene-2,2-DM, 5-norbornene-2,2-dimethanol]
Tyrosinase In Situ [1, 6]: 24.5 dpm/hr/10^3 Cells and 25.4 dpm/hr/10^3 Cells | Tyrosinase 200 g Partic [1, 8]: 6447 dpm/hr/10^3 Cells and 6291 dpm/hr/10^3 Cells | Tyrosinase Cellular [1, 8]: 13838 dpm/hr/10^3 Cells and 14716 dpm/hr/10^3 Cells | Tyrosinase Cellular ([1]; Black-Neonatal-NHEM, 1 mM): 10679 dpm/hr/10^3 cells | Tyrosinase Cellular relative to Control ([1]; Black-Neonatal-NHEM, 1 mM): 1.08 X | Tyrosinase In Situ ([1]; Black-Neonatal-NHEM, 1 mM): 13.9 dpm/hr/10^3 cells | Tyrosinase In Situ relative to Control ([1]; Black-Neonatal-NHEM, 1 mM): 1.11 X | Tyrosinase Media relative to Control ([1]; Black-Neonatal-NHEM, 1 mM): 2.41 X | Tyrosinase Media ([1]; Black-Neonatal-NHEM, 1 mM, media from 1 day treatment period): 26.8 dpm/hr/10^3 cells | Tyrosinase Cellular ([1]; Black-Neonatal-NHEM, 5 mM): 15398 dpm/hr/10^3 cells | Tyrosinase Cellular relative to Control ([1]; Black-Neonatal-NHEM, 5 mM): 1.56 X | Tyrosinase In Situ ([1]; Black-Neonatal-NHEM, 5 mM): 14.1 dpm/hr/10^3 cells | Tyrosinase In Situ relative to Control ([1]; Black-Neonatal-NHEM, 5 mM): 1.13 X | Tyrosinase Media relative to Control ([1]; Black-Neonatal-NHEM, 5 mM): 2.99 X | Tyrosinase Media ([1]; Black-Neonatal-NHEM, 5 mM, media from 1 day treatment period): 33.2 dpm/hr/10^3 cells | Tyrosinase 17300 g Partic ([1]; Post 200 X g, 5 day treatment, concentrations as E130): 493 dpm/hr/10^3 Cells and 473 dpm/hr/10^3 Cells | Tyrosinase Media ([1]; Post 17300 X g, 5 day treatment, concentrations as E130): 4164 dpm/hr/10^3 Cells and 4639 dpm/hr/10^3 Cells | Tyrosinase Cellular ([1]; White-Adult-NHEM, 1 mM): 12740 dpm/hr/10^3 cells | Tyrosinase Cellular relative to Control ([1]; White-Adult-NHEM, 1 mM): 0.91 X | Tyrosinase In Situ ([1]; White-Adult-NHEM, 1 mM): 6.27 dpm/hr/10^3 cells | Tyrosinase In Situ relative to Control ([1]; White-Adult-NHEM, 1 mM): 1.13 X | Tyrosinase Media relative to Control ([1]; White-Adult-NHEM, 1 mM): 0.82 X | Tyrosinase Media ([1]; White-Adult-NHEM, 1 mM, media from 1 day treatment period): 29.9 dpm/hr/10^3 cells | Tyrosinase Cellular ([1]; White-Adult-NHEM, 5 mM): 18467 dpm/hr/10^3 cells | Tyrosinase Cellular relative to Control ([1]; White-Adult-NHEM, 5 mM): 1.32 X | Tyrosinase In Situ ([1]; White-Adult-NHEM, 5 mM): 5.81 dpm/hr/10^3 cells | Tyrosinase In Situ relative to Control ([1]; White-Adult-NHEM, 5 mM): 1.04 X | Tyrosinase Media relative to Control ([1]; White-Adult-NHEM, 5 mM): 1.46 X | Tyrosinase Media ([1]; White-Adult-NHEM, 5 mM, media from 1 day treatment period): 53.1 dpm/hr/10^3 cells | Tyrosinase 200 g Partic, relative to controls (in parentheses) ([1]; concentrations as E130): (18.6X) | Tyrosinase 17300 g Partic, relative to controls (in parentheses) ([1]; concentrations as E130): (4.22X) | Tyrosinase Cellular, relative to controls (in parentheses) ([1]; concentrations as E130): (1.40X) | Tyrosinase In Situ, relative to controls (in parentheses) ([1]; concentrations as E130): (1.57X) | Tyrosinase Media, relative to controls (in parentheses) ([1]; concentrations as E130): (2.83X) | Fold Induction of Tyrosinase Relative to Controls ([2]; 0.5 mM (Table 16)): 2.8X | Fold Induction of Tyrosinase Relative to Controls ([2]; 1 mM (Table 15)): 4.0X | Fold Induction of Tyrosinase Relative to Controls ([2]; 1 mM (Table 16)): 3.6X | Fold Induction of Tyrosinase Relative to Controls ([2]; 2 mM (Table 15)): 12.9X | Fold Induction of Tyrosinase Relative to Controls ([2]; 2.5 mM (Table 16)): 14.5X | Tyrosinase Relative to Control ([2]; 5 mM 5-NBene-2,2-DM): 8.2X | Tyrosinase dpm/hr/ug Protein ([2]; 5 mM 5-NBene-2,2-DM): 3273 dpm/hr/ug Protein | Tyrosinase dpm/hr/10^3 Cells, Avg. ([2]; 5 mM 5-NBene-2,2-DM, average of two): 4381 dpm/hr/10^3 Cells | Tyrosinase dpm/hr/10^3 Cells ([2]; 5 mM 5-NBene-2,2-DM, single replicates): 4515 dpm/hr/10^3 Cells and 4247 dpm/hr/10^3 Cells | Fold Induction of Tyrosinase Relative to Controls ([2]; 5 mM (Table 15)): 41.9X | Fold Induction of Tyrosinase Relative to Controls ([2]; 5 mM (Table 16)): 61.6X | Tyrosinase dpm/hr 10^3 Cells ([2]; 5 mM 5-NBene-2,2-DM): 707 ± 54 dpm/hr/10^3 Cells | Tyrosinase dpm/hr ug Protein ([2]; 5 mM 5-NBene-2,2-DM): 1643 ± 105 dpm/hr/ug Protein | % of 5-NBene-2,2-DM [2, 9]: 100% | Tyrosinase induction dpm/hr/10^3 cells [2, 9]: 5018 ± 415^1 dpm/hr/10^3 cells | % of 5-NBene-2,2-DM [2, 10]: 100% | Tyrosinase induction dpm/hr/10^3 cells [2, 10]: 5640 ± 323 dpm/hr/10^3 cells | % of 5-NBene-2,2-DM [2, 11]: 100% | Tyrosinase induction dpm/hr/10^3 cells [2, 11]: 6388 ± 460^1 dpm/hr/10^3 cells | Concentration Required for ≧1.5-fold Melanin Induction in NHEMs ([3]; listed as 5-Norbornene-2,2-Dimethanol): 5 mM | Concentration Required for ≧1.5-fold Melanin Induction in NHEMs ([3]; listed as 5-norbornene-2,2-dimethanol): ≤ 5 mM | Pigmentation Ratings (X ± SE; n = 6; scale 0 to +4) ([4]; spot a (anterior), 8.7M 1,2-cis-CPD in 20% ETOH, 1M 5-NBene-2,2-DM in 8.5 M propylene glycol, 2% 2-pyrrolidone, 20% ETOH, 1M 2,3-cs/ex PD in 50% ETOH): 1.75 ± 0.43 | Pigmentation Ratings (X ± SE; n = 6; scale 0 to +4) ([4]; spot b, formulations as E220): 1.25 ± 0.21 | Pigmentation Ratings (X ± SE; n = 6; scale 0 to +4) ([4]; spot c, formulations as E220): 0.83 ± 0.15 | Pigmentation Ratings (X ± SE; n = 6; scale 0 to +4) ([4]; spot d (posterior), formulations as E220): 0.29 ± 0.08 | Cells (×10^6) ([5]; 1 mM, 4 days, X ± SE, n = 3): 0.423 ± 0.052 ×10^6 | Cells (×10^6) ([5]; 2.5 mM, 4 days, X ± SE, n = 3): 0.269 ± 0.040 ×10^6 | Cells (×10^6) ([5]; 5 mM, 4 days, X ± SE, n = 3): 0.090 ± 0.011 ×10^6 | toxicity to S91 cells ([5]; concentrations that induce much higher levels of tyrosinase): nontoxic
